Values of other authors as cited in paper PMC3922827 (Journal of the American Chemical Society, 2013).
Where two headings read alike, the source gives them in different places. No end group written: not given here. *: point of attachment. For = O=C*

Settings: graded or all-or-none class

Row | Substance | type of dye release from lipid vesicles (LUVs) | type of dye release from lipid vesicles
1 | For-MAQKIISTIGKLVKWIIKTVNKFTKK [DL-1] | all-or-none | –
2 | AGWLLGKINLKALAALAKKIL-NH2 [TP10W] | – | graded
